Source: publication PMC12376128, “In vitro and In Vivo Drug Metabolism Analysis of BPI-460372 - A Covalent TEAD1/3/4 Inhibitor” (Current Drug Metabolism, 2025)

How the values were obtained:
[1] = Stability in plasma; type: in vitro ADME; settings: rat plasma, 37°C, 4 h
[2] = tested on: cysteine S-conjugate β-lyase; assay: Effect of cysteine S-conjugate β-lyase inhibitor AOAA on the metabolism of BPI-460372 (rat urine); settings: 20 mg/kg BPI-460372 + 100 mg/kg AOAA, once daily 21 days, urine 0-48 h on day 21
Protocol: To investigate the effect of cysteine S-conjugate β-lyase on the metabolism of BPI-460372, SD rats were treated with 20 mg/kg BPI-460372 alone (n=3, male) or 20 mg/kg BPI-460372 coadministration with 100 mg/kg cysteine S-conjugate β-lyase inhibitor AOAA (n=3, male), once daily for 21 consecutive days. On day 21, urine samples were collected at 0-8, 8-24 and 24-48 h. The same percentage of urine samples from each rat was taken at these three time intervals and mixed. The samples were analyzed by LC-MS/MS and then semi-quantified using the peak area ratio of analyte versus IS.

[3] = In vivo clearance; settings: rats
[4] = Stability in plasma; type: in vitro ADME; settings: mouse plasma, 37°C, 4 h
[5] = tested on: rat hepatocytes; assay: in vitro
Protocol: (§1) After mixing, 20 μL of cell suspension was serially transferred into 200 μL of cold acetonitrile containing IS at the time points of 0, 5, 15, 30, 60, and 120 min, respectively.
(§2) The metabolic stability was assessed by measuring the depletion of substrate. The half-life (t1/2), intrinsic clearance (CLint, in virto, µL·min^-1·million cells^-1), whole liver intrinsic clearance (CLint, in vivo, mL·min-1·kg^-1), and in vivo hepatic clearance (CLH, mL·min-1·kg^-1) were calculated following a reported method. In the calculation of CLH, the fraction drug unbound (Fub) was set as 1. The hepatic blood flow, liver weight, and hepatocellularity of five species were used for the calculation of CLint, in vivo [13, 14]. The hepatic extraction ratio (Eh) means the ratio of CLH to hepatic blood flow.

[6] = tested on: human hepatocytes; assay: in vitro
Protocol: as §1, §2

[7] = in vitro; settings: hepatocytes
Protocol: as §1, §2

[8] = tested on: monkey hepatocytes; assay: in vitro
Protocol: as §1, §2

[9] = tested on: mouse hepatocytes; assay: in vitro
Protocol: as §1, §2

[10] = tested on: dog hepatocytes; assay: in vitro
Protocol: as §1, §2

[11] = tested on: CYP2C8; assay: Metabolic stability in HLMs with or without specific CYP inhibitor (quercetin); type: in vitro ADME, human; settings: HLMs 1 mg protein/mL, substrate 1 μM, quercetin 20 µM
Protocol: Before starting the experiments, the HLMs were thawed gently on ice. Metabolic stability incubations were performed at 37 °C. The incubations contained 100 mM phosphate buffer saline (PBS, pH 7.4), HLMs (1 mg protein·mL^-1), dimethyl sulfoxide (DMSO, blank control) or a selective CYP inhibitor, and BPI-460372 or positive control substrates (final incubation concentration, 1 μM). The incubation process started with the addition of NADPH (1 mM final concentration) after a 5-minute preincubation period. The chemical inhibitors were as follows: a-naphthoflavone (2 µM) for CYP1A2, ticlopidine (20 µM) for 2B6, quercetin (20 µM) for CYP2C8, sulfaphenazole (20 µM) for CYP2C9, ticlopidine (200 µM) for CYP2C19, quinidine (20 µM) for CYP2D6, and ketoconazole (20 µM) for CYP3A [9]. Aliquots were maintained in acetonitrile containing internal standard (IS) at various time points, such as 0 min, 5 min, 10 min, 20 min, 30 min, and 60 min. All incubations were performed in triplicate, and the concentration in the supernatant was determined by liquid chromatography-tandem mass spectrometry (LC-MS/MS).
The elimination rate constant k (min^-1) was obtained by linear regression from the natural logarithm of the […] of the parent drug and the incubation time. The inhibition rate was calculated using equation 1 [10]: […]

[12] = tested on: rat hepatocytes; assay: Metabolism and metabolite formation in hepatocytes; type: in vitro ADME, SD rat; settings: SD rat hepatocytes, 10 µM BPI-460372, 4 h incubation
From the text: All the samples were duplicates.

[13] = Metabolite identification in rat plasma, urine, feces and bile; type: in vivo, SD rats
Method in brief: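 Pooled sex-specific samples from SD rats: plasma after 12 mg/kg, urine, feces and bile (collected over 0-48 h) after 6 mg/kg; beagle dog plasma after 8 mg/kg. Acetonitrile extraction (urine centrifuged only), dried, redissolved in acetonitrile/water 20:80, analysed by UHPLC-Orbitrap-HRMS.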

[14] = oral 6 mg/kg BPI-460372, average of male and female pooled samples

## C=C(F)C(=O)N1CC(n2c(=O)n(-c3ccc(C(F)(F)F)cc3)c3nccnc32)C1 [BPI-460372]
[1]
  Stability in plasma: stable
[2]
  Area ratio in rat urine, mean (%CV): 1.48 (69)
[3]
  Clearance in vivo: low clearance
[4]
  Stability in plasma: stable
[5]; SD, rat, 1 µM
  CLH: 11.0 mL/min/kg
  Eh: 0.200
[5]; SD, rat, hepatocytes, 2 h, 1 µM
  Remaining percentage after 120 min incubation: 72.4%
[5]; hepatocytes
  CLint, in vivo: 13.8 mL/min/kg
[5]; rat, hepatocytes
  CLint, in virto: 2.941 µL·min^-1·Million cells^-1
  Clearance class from Eh: low clearance
[6]; hepatocytes
  CLint, in vivo: 2.7 mL/min/kg
[6]; human, 1 µM
  CLH: 2.4 mL/min/kg
  Eh: 0.115
[6]; human, hepatocytes
  CLint, in virto: 0.746 µL·min^-1·Million cells^-1
  Clearance class from Eh: low clearance
[6]; human, hepatocytes, 2 h, 1 µM
  Remaining percentage after 120 min incubation: 97.3%
[7]; ICR, mouse
  half-life at 1 µM: 2.23 h
[7]; SD, rat
  half-life at 1 µM: 3.93 h
[7]; beagle, dog
  half-life at 1 µM: 3.19 h
[7]; human
  half-life at 1 µM: 15.5 h
[7]; monkey
  half-life at 1 µM: 2.79 h
[8]; cynomolgus monkey, 1 µM
  CLH: 11.1 mL/min/kg
  Eh: 0.253
[8]; hepatocytes
  CLint, in vivo: 14.9 mL/min/kg
[8]; monkey, hepatocytes
  CLint, in virto: 4.145 µL·min^-1·Million cells^-1
  Clearance class from Eh: low clearance
[8]; monkey, hepatocytes, 2 h, 1 µM
  Remaining percentage after 120 min incubation: 61.7%
[9]; ICR, mouse, 1 µM
  CLH: 36.6 mL/min/kg
  Eh: 0.406
[9]; ICR, mouse, hepatocytes, 2 h, 1 µM
  Remaining percentage after 120 min incubation: 54.7%
[9]; hepatocytes
  CLint, in vivo: 61.6 mL/min/kg
[9]; mouse, hepatocytes
  CLint, in virto: 5.187 µL·min^-1·Million cells^-1
  Clearance class from Eh: moderate clearance
[10]; beagle, dog, 1 µM
  CLH: 13.8 mL/min/kg
  Eh: 0.446
[10]; beagle, dog, hepatocytes, 2 h, 1 µM
  Remaining percentage after 120 min incubation: 66.6%
[10]; dog, hepatocytes
  CLint, in virto: 3.619 µL·min^-1·Million cells^-1
  Clearance class from Eh: moderate clearance
[10]; hepatocytes
  CLint, in vivo: 24.9 mL/min/kg
[11]
  Inhibition Rate: 53.9%
[12]
  UV (314 nm) Peak Areas Relative Abundance: 70.87%
[13]; [14]
  Relative abundance of MS peak areas, Rat Bile 0-48 h: 0.67%
  Relative abundance of MS peak areas, Rat Feces 0-48 h: 16.95%
  Relative abundance of MS peak areas, Rat Urine 0-48 h: 0.12%
[13]; oral 12 mg/kg BPI-460372, average of male and female pooled samples
  Relative abundance of MS peak areas, Rat Plasma 0-24 h: 75.36%
